Results on 13 compounds are retold here after patent publication US20160137630A1, “INDUCTION OF GATA2 BY HDAC1 AND HDAC2 INHIBITORS” (ACETYLON PHARMACEUTICALS, INC., priority 2014, published 2016).

Values joined by “and” are separate entries in the source; they are usually repeats but may differ in a detail not shown here. Equal entries are not always repeated. Where two headings read alike, the source gives them in different places.

What all share (assay): in vitro biochemical HDAC inhibition assay
One assay deals with HDAC2 (Homo sapiens, UniProt Q92769). The conditions noted are these: read-out: IC50 HDAC2.
The target in another assay is HDAC1 (Homo sapiens, UniProt Q13547). The conditions noted are these: read-out: IC50 HDAC1.
For the next assay, the target named is HDAC3 (Homo sapiens, UniProt O15379). The conditions noted are these: read-out: IC50 HDAC3.
Chain of HDAC3 (O15379 whole entry): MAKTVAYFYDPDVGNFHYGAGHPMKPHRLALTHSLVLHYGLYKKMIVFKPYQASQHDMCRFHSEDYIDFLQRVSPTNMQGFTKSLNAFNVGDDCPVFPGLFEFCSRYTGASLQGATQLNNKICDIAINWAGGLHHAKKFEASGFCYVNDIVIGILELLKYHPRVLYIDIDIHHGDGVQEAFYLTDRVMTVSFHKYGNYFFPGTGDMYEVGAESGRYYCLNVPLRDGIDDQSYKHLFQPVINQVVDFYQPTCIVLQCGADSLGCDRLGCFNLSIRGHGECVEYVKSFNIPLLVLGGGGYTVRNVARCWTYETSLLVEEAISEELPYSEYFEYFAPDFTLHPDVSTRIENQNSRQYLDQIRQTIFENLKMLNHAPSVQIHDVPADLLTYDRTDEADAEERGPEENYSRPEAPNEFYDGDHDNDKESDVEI
Chain of HDAC3 (Q9Y618 395-489 partner limits assumed): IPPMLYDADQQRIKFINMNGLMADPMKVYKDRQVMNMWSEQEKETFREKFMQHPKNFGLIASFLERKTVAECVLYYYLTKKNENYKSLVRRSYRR

Chain of HDAC2 (Q92769 whole entry): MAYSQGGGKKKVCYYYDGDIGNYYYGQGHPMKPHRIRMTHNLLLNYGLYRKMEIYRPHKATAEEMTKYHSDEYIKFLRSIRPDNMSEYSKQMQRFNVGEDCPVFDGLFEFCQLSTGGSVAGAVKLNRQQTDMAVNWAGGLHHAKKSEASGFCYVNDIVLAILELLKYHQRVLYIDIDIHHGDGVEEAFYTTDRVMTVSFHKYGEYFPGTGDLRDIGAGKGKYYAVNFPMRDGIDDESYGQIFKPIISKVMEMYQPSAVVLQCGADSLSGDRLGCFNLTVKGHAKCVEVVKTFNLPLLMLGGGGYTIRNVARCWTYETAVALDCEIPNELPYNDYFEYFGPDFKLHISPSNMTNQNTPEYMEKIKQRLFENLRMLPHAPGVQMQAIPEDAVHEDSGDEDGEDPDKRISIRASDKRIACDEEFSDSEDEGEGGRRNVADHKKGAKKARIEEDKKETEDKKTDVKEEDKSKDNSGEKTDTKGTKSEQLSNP
Chain of HDAC1 (Q13547 whole entry): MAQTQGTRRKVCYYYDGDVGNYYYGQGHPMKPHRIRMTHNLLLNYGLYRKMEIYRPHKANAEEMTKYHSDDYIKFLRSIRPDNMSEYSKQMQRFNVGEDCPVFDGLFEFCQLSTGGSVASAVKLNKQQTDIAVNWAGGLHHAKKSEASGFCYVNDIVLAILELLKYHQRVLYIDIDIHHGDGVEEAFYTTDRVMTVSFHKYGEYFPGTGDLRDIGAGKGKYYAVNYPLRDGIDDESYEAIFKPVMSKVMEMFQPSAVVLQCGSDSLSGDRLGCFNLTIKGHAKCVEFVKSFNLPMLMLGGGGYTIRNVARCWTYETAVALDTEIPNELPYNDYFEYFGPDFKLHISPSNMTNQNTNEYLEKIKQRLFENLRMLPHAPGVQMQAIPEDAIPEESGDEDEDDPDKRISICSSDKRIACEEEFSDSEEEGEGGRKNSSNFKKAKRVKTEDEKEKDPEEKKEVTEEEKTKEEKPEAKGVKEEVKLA

Broadly, the IC50 is the concentration needed to halve the response being measured. In the case of `Nc1ccccc1NC(=O)c1ccc(N2CCNCC2)cc1C1CC1` [Compound 2006], the IC50 on HDAC2 (Table 4) is more than 2000 nM; on HDAC1 (Table 4), 1400 nM; on HDAC3 (Table 4), 23 nM.

`CN1CCN(C(=O)N2CCC(C)(Nc3ncc(C(=O)Nc4cc(-c5cccs5)ccc4N)cn3)CC2)CC1` [Compound 2009]: the IC50 stood at 31.5 nM at HDAC2 (Table 4), 8.53 nM at HDAC1 (Table 4) and 259 nM at HDAC3 (Table 4).

Turning to `Nc1ccc(-c2cccs2)cc1NC(=O)c1ccc2nc(N3CCNCC3)cnc2c1` [N-(2-amino-5-(thiophen-2-yl)phenyl)-2-(piperazin-1-yl)quinoxaline-6-carboxamide], the results for the IC50 at HDAC2 (Table 2), on HDAC1 (Table 2) and on HDAC3 (Table 2) were 12 nM, 7 nM and 71 nM, respectively.

Regarding `COCCN(C)c1cc2ncc(C(=O)Nc3cc(-c4cccs4)ccc3N)cc2cc1C1CC1` [N-(2-amino-5-(thiophen-2-yl)phenyl)-6-cyclopropyl-7-((2-methoxyethyl)(methyl)amino)quinoline-3-carboxamide], the IC50 is 667 nM on HDAC2 (Table 2), 944 nM at HDAC1 (Table 2) and more than 2000 nM on HDAC3 (Table 2).

With `COCCNc1cc2ncc(C(=O)Nc3cc(-c4cccs4)ccc3N)cc2cc1C1CC1` [N-(2-amino-5-(thiophen-2-yl)phenyl)-6-cyclopropyl-7-((2-methoxyethyl)amino)quinoline-3-carboxamide], the IC50 on HDAC2 (Table 2) was determined as 243 nM; at HDAC1 (Table 2), 89 nM; on HDAC3 (Table 2), 1550 nM.

Take `Nc1ccc(-c2cccs2)cc1NC(=O)c1cnc2c(C3CC3)c(N3CCNCC3)ccc2c1` [N-(2-amino-5-(thiophen-2-yl)phenyl)-8-cyclopropyl-7-(piperazin-1-yl)quinoline-3-carboxamide]: the IC50 came to 14 nM at HDAC2 (Table 2), 3.1 nM at HDAC1 (Table 2) and 99 nM at HDAC3 (Table 2).

On to `Nc1sc(-c2ccccc2)cc1NC(=O)c1cnc2cc(N3CCNCC3)ccc2c1` [N-(2-amino-5-phenylthiophen-3-yl)-7-(piperazin-1-yl)quinoline-3-carboxamide], for which the results for the IC50 on HDAC2 (Table 2), on HDAC1 (Table 2) and on HDAC3 (Table 2) were 193 nM, 1210 nM and 171 nM, respectively.

For the compound `Nc1ccccc1NC(=O)c1ccc2nc(N3CCNCC3)ccc2c1` [N-(2-aminophenyl)-2-(piperazin-1-yl)quinoline-6-carboxamide], the IC50 was 624 nM at HDAC2 (Table 2), more than 2000 nM at HDAC1 (Table 2) and 104 nM at HDAC3 (Table 2).

In the case of `Nc1cc(-c2ccccc2)sc1NC(=O)c1cnc2cc(N3CCNCC3)ccc2c1` [N-(3-amino-5-phenylthiophen-2-yl)-7-(piperazin-1-yl)quinoline-3-carboxamide], the IC50 at HDAC2 (Table 2), on HDAC1 (Table 2) and on HDAC3 (Table 2) was more than 2000 nM in each case.

Turning to `Nc1ccc(-c2ccccc2)nc1NC(=O)c1cnc2cc(N3CCNCC3)ccc2c1` [N-(3-amino-6-phenylpyridin-2-yl)-7-(piperazin-1-yl)quinoline-3-carboxamide], the IC50 was found to be 336 nM at HDAC2 (Table 2), 1970 nM on HDAC1 (Table 2) and 798 nM at HDAC3 (Table 2).

Turning to `CN1CCN(CCn2ccc3cc(C(=O)Nc4cc(-c5ccccc5)ccc4N)ccc32)CC1` [N-(4-amino-[1,1′-biphenyl]-3-yl)-1-(2-(4-methylpiperazin-1-yl)ethyl)-1H-indole-5-carboxamide], the IC50 at HDAC2 (Table 2) was 11 nM; at HDAC1 (Table 2) it was 7.1 nM; at HDAC3 (Table 2) it was 175 nM.

On to `COCCNc1ccc2cc(C(=O)Nc3cc(-c4ccccc4)ccc3N)cnc2c1C1CC1` [N-(4-amino-[1,1′-biphenyl]-3-yl)-8-cyclopropyl-7-((2-methoxyethyl)amino)quinoline-3-carboxamide], for which the IC50 is 301 nM on HDAC2 (Table 2) and more than 2000 nM at HDAC3 (Table 2).

Take `Nc1cnc(-c2ccccc2)cc1NC(=O)c1cnc2cc(N3CCNCC3)ccc2c1` [N-(5-amino-2-phenylpyridin-4-yl)-7-(piperazin-1-yl)quinoline-3-carboxamide]: the IC50 at HDAC2 (Table 2) is 1190 nM and 1880 nM; on HDAC1 (Table 2) it was 1230 nM.
